Test results reported in US8163269B2, “Bioactive stents for type II diabetics and methods for use thereof” (priority 2004, dated 2012).

Tested on: progenitor endothelial cells (PECs)
Assay: trial PEC isolation, plating on coated plates
Type: cell-based, human
Conditions: fibronectin-coated versus gelatin-coated plates
Source text: PEC Isolations To establish the protocol for isolating the progenitor endothelial cells (PECs) from peripheral blood, blood from healthy, normal donors was used. A literature review generated multiple PEC isolation protocols (J.C.I. (2000) 105:71-77; Circ. (2003) 107:143-149; Circ. (2003) 107:1164-1169; Plast. Reconstruc. Surgr. (2004) 113:284; and Am. J. Physiol. Heart Circ. Physiol. (2004) 286:H1985-H1993). […] The flow chart in FIG. 2 presents a modified protocol followed in isolation of PECs.
Cells were isolated from ˜120 milliliters of peripheral blood and then single aliquots of cells were plated in Endothelial Basal Medium and 5% FBS (Cambrex). The media was changed every 4-5 days. The total cell number obtained from the isolations was donor-dependent and ranged from 40 million to 200 million cells.

fibronectin
attachment and growth of isolated cells on coated plates: attach and grow better on fibronectin-coated plates than on gelatin-coated plates
